Source: patent US20240300927A1, “AMIDES AS CBL-B INHIBITORS” (Genentech, Inc., priority 2021, published 2024)

Legend:
Cbl-b = Cbl-b (Homo sapiens (Human), UniProt Q13191); assay: Cbl-b LCK Ub TR-FRET assay (Cbl-b Lck HTRF); format: biochemical; conditions: for (fold-selectivity): Cbl-b and C-Cbl selectivity, Lck HTRF; for IC50: read-out: Cbl-b Lck HTRF IC50
Description: (§1) Compounds were 3-fold serially diluted in DMSO in a 384-well polypropylene plate (#P-05525-BC; Labcyte) to generate a source plate with 10 concentrations of each compound, top concentration=2 mM. 80 nL of DMSO or compounds were transferred to each well of a black 384-well ProxiPlate (#6008260; PerkinElmer) using a Labcyte Echo. 1× assay buffer (50 mM HEPES pH7.0, 100 mM NaCl, 0.01% BSA, 0.01% Triton-X100, 1 mM DTT), 2× enzyme solution (16 nM Biotin-Cbl-b or 12 nM Biotin-c-Cbl in 1× assay buffer), 2× kinase mixture (120 nM His-LCK, 1 mM ATP, 10 mM MgCl2 in assay buffer) and 2.33× detection mixture (4.66× solution 1: 163 nM Anti-HA-D2 antibody (#610HADAB; PerkinElmer), 27.96 nM Streptavidin-EU (#AD0062; PerkinElmer), 1.398 mM EDTA in 1× assay buffer+4.66× solution 2: 2.796 μM UBE2D2/Methylated-HA-Ubiquitin thioester adduct (BostonBiochem) in 1× assay buffer) were prepared. 4 μL of 2× enzyme solution was added to each well containing compound, briefly centrifuged to mix, and incubated for 60 min at room temperature. 4 μL of 2× kinase mixture was added, briefly centrifuged to mix, and incubated for 90 min. at room temperature. 6 μL of detection mixture was added to all wells and briefly centrifuged before incubating for 20 min at room temperature. Plates were read for TR-FRET using an Envision at excitation 340 nm, emission at 615 and 665 nm, 4 flashes per well. IC50 was generated using no LCK as the low control and DMSO as the high control.
(§2) Cbl-b Lck HTRF data in Table 3 is measured according to Example 25 herein; C-cbl Lck HTRF data is measured according to Example 25 herein.
(§3) SPR and the LCK biochemical assay are orthogonal assays: SPR is a protein binding assay while the LCK assay is an enzyme activity assay. SPR measures compound binding affinity to CBL-B/C-CBL, whereas LCK assay measures compound inhibition of CBL-B/C-CBL ubiquitin transfer activity.

c-Cbl = c-Cbl (Homo sapiens (Human), UniProt P22681); assay: C-cbl LCK Ub TR-FRET assay (C-cbl Lck HTRF); format: biochemical
Description: as §1, §2, §3

Sequence of c-Cbl (P22681 47-435): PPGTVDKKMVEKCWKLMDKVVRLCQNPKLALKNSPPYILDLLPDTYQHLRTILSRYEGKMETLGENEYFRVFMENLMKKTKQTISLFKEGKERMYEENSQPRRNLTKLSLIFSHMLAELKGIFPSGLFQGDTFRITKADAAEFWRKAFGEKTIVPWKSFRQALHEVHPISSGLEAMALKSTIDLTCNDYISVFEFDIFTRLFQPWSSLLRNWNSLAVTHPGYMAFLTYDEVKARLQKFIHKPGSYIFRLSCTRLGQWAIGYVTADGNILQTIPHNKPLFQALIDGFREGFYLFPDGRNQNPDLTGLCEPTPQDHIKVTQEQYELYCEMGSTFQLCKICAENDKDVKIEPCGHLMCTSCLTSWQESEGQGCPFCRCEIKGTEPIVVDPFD
Sequence of Cbl-b (Q13191 40-426): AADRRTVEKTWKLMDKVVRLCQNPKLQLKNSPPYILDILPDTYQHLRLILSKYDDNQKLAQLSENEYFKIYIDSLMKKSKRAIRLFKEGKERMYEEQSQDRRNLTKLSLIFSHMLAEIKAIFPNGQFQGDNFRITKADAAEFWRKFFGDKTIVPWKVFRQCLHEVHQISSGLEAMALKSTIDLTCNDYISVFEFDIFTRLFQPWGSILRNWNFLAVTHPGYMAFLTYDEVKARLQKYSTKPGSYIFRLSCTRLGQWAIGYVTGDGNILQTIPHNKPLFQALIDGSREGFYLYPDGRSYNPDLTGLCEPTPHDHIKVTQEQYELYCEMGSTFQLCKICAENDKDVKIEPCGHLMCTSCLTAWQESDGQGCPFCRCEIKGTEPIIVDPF

| SMILES | (fold-selectivity) (Cbl-b) | IC50 (Cbl-b) [nM] | IC50 (c-Cbl) [nM] |
| --- | --- | --- | --- |
| Cn1cnnc1[C@@H](F)C(C)(F)c1cccc(NC(=O)c2cc(CN3CC(C)(F)C3)nc(C3CC3)n2)c1 (stereo in doubt) [Compound 45, 2-cyclopropyl-N-(3-((1R,2S)-1,2-difluoro-1-(4-methyl-4H-1,2,4-triazol-3-yl)propan-2-yl)phenyl)-6-((3-fluoro-3-methylazetidin-1-yl)methyl)pyrimidine-4-carboxamide] | (1.4x) | 12000 | 16000 |
| Cn1cnnc1[C@@H](F)C(C)(F)c1cccc(NC(=O)c2cc(CN3CC(C)(F)C3)nc(C3CC3)n2)c1 (stereo in doubt) [Compound 46, 2-cyclopropyl-N-(3-((1R,2R)-1,2-difluoro-1-(4-methyl-4H-1,2,4-triazol-3-yl)propan-2-yl)phenyl)-6-((3-fluoro-3-methylazetidin-1-yl)methyl)pyrimidine-4-carboxamide] | (1.9x) | 420 | 800 |
| Cn1cnnc1[C@H](F)C1(c2cccc(NC(=O)c3cc(CN4CC(C)(F)C4)cc(C4CC4)n3)c2)COC1 [Compound 7, (R)-6-cyclopropyl-N-(3-(3-(fluoro(4-methyl-4H-1,2,4-triazol-3-yl)methyl)oxetan-3-yl)phenyl)-4-((3-fluoro-3-methylazetidin-1-yl)methyl)picolinamide] | (1.8x) | 17 | 31 |
| Cn1cnnc1[C@@H](F)C1(c2cccc(NC(=O)c3cc(CN4CC(C)(F)C4)cc(C4CC4)n3)c2)COC1 [Compound 8, (S)-6-cyclopropyl-N-(3-(3-(fluoro(4-methyl-4H-1,2,4-triazol-3-yl)methyl)oxetan-3-yl)phenyl)-4-((3-fluoro-3-methylazetidin-1-yl)methyl)picolinamide] | (2.0x) | 30 | 60 |
| Cn1cnnc1[C@H](F)C1(c2cccc(NC(=O)c3cc(CN4CC(C)(F)C4)nc(C4CC4)n3)c2)COC1 [Compound 20, (R)-2-cyclopropyl-N-(3-(3-(fluoro(4-methyl-4H-1,2,4-triazol-3-yl)methyl)oxetan-3-yl)phenyl)-6-((3-fluoro-3-methylazetidin-1-yl)methyl)pyrimidine-4-carboxamide] | (1.3x) | 270 | 350 |
| Cn1cnnc1[C@@H](F)C1(c2cccc(NC(=O)c3cc(CN4CC(C)(F)C4)nc(C4CC4)n3)c2)COC1 [Compound 21, 2-cyclopropyl-6-[(3-fluoro-3-methyl-azetidin-1-yl)methyl]-N-[3-[3-[(S)-fluoro-(4-methyl-1,2,4-triazol-3-yl)methyl]oxetan-3-yl]phenyl]pyrimidine-4-carboxamide] | (1.3x) | 510 | 670 |
| C[C@@H](c1cc(C(=O)Nc2cccc(C3([C@@H](F)c4nncn4C)COC3)c2)nc(C2CC2)c1)N1CCC2(CC2)C1 [Compound 22, 4-((S)-1-(5-azaspiro[2.4]heptan-5-yl)ethyl)-6-cyclopropyl-N-(3-(3-((R)-fluoro(4-methyl-4H-1,2,4-triazol-3-yl)methyl)oxetan-3-yl)phenyl)picolinamide] | (0.87x) | 12 | 10 |
| C[C@H](c1cc(C(=O)Nc2cccc(C3([C@@H](F)c4nncn4C)COC3)c2)nc(C2CC2)c1)N1CCC2(CC2)C1 [Compound 23, 4-((R)-1-(5-azaspiro[2.4]heptan-5-yl)ethyl)-6-cyclopropyl-N-(3-(3-((R)-fluoro(4-methyl-4H-1,2,4-triazol-3-yl)methyl)oxetan-3-yl)phenyl)picolinamide] | (0.94x) | 50 | 47 |

Results, then the compound that gave them:

| (fold-selectivity) (Cbl-b) | IC50 (Cbl-b) [nM] | IC50 (c-Cbl) [nM] | SMILES |
| --- | --- | --- | --- |
| (2.2x) | 110 | 250 | C[C@@H](c1cc(C(=O)Nc2cccc(C3(Cc4nncn4C)COC3)c2)nc(C(F)(F)F)c1)N1CC(F)C1 [Compound 1, (S)-4-(1-(3-fluoroazetidin-1-yl)ethyl)-N-(3-(3-((4-methyl-4H-1,2,4-triazol-3-yl)methyl)oxetan-3-yl)phenyl)-6-(trifluoromethyl)picolinamide] |
| (1.7x) | 220 | 370 | C[C@H](c1cc(C(=O)Nc2cccc(C3(Cc4nncn4C)COC3)c2)nc(C(F)(F)F)c1)N1CC(F)C1 [Compound 2, (R)-4-(1-(3-fluoroazetidin-1-yl)ethyl)-N-(3-(3-((4-methyl-4H-1,2,4-triazol-3-yl)methyl)oxetan-3-yl)phenyl)-6-(trifluoromethyl)picolinamide] |
| (1.9x) | 25 | 47 | C[C@@H](c1cc(C(=O)Nc2cccc(C3(Cc4nncn4C)COC3)c2)nc(C(F)(F)F)c1)N1CCC2(CC2)C1 [Compound 3, (S)-4-(1-(5-azaspiro[2.4]heptan-5-yl)ethyl)-N-(3-(3-((4-methyl-4H-1,2,4-triazol-3-yl)methyl)oxetan-3-yl)phenyl)-6-(trifluoromethyl)picolinamide] |
| (1.9x) | 67 | 130 | C[C@H](c1cc(C(=O)Nc2cccc(C3(Cc4nncn4C)COC3)c2)nc(C(F)(F)F)c1)N1CCC2(CC2)C1 [Compound 4, (R)-4-(1-(5-azaspiro[2.4]heptan-5-yl)ethyl)-N-(3-(3-((4-methyl-4H-1,2,4-triazol-3-yl)methyl)oxetan-3-yl)phenyl)-6-(trifluoromethyl)picolinamide] |
| (1.6x) | 19 | 30 | Cn1cnnc1[C@H](F)C1(c2cccc(NC(=O)c3cc(CN4CCC5(CC5)C4)cc(C4CC4)n3)c2)COC1 [Compound 5, (R)-4-(5-azaspiro[2.4]heptan-5-ylmethyl)-6-cyclopropyl-N-(3-(3-(fluoro(4-methyl-4H-1,2,4-triazol-3-yl)methyl)oxetan-3-yl)phenyl)picolinamide] |
| (1.7x) | 20 | 33 | Cn1cnnc1[C@@H](F)C1(c2cccc(NC(=O)c3cc(CN4CCC5(CC5)C4)cc(C4CC4)n3)c2)COC1 [Compound 6, (S)-4-(5-azaspiro[2.4]heptan-5-ylmethyl)-6-cyclopropyl-N-(3-(3-(fluoro(4-methyl-4H-1,2,4-triazol-3-yl)methyl)oxetan-3-yl)phenyl)picolinamide] |
| (1.6x) | 260 | 410 | Cn1cnnc1CC1(c2cccc(NC(=O)c3cccc(C(F)(F)F)n3)c2)CC(F)(F)C1 [Compound 16, N-(3-(3,3-difluoro-1-((4-methyl-4H-1,2,4-triazol-3-yl)methyl)cyclobutyl)phenyl)-6-(trifluoromethyl)picolinamide] |
| (1.1x) | 260 | 280 | Cn1cnnc1C[C@]1(c2cccc(NC(=O)c3cccc(C(F)(F)F)n3)c2)C[C@H](F)C1 [Compound 18, N-(3-((1R,3S)-3-fluoro-1-((4-methyl-4H-1,2,4-triazol-3-yl)methyl)cyclobutyl)phenyl)-6-(trifluoromethyl)picolinamide] |
| (2.1x) | 280 | 570 | Cn1cnnc1C[C@]1(c2cccc(NC(=O)c3cccc(C(F)(F)F)n3)c2)C[C@@H](F)C1 [Compound 19, N-(3-((1S,3R)-3-fluoro-1-((4-methyl-4H-1,2,4-triazol-3-yl)methyl)cyclobutyl)phenyl)-6-(trifluoromethyl)picolinamide] |
| (0.92x) | 63 | 58 | C[C@@H](c1cc(C(=O)Nc2cccc(C3([C@H](F)c4nncn4C)COC3)c2)nc(C2CC2)c1)N1CCC2(CC2)C1 [Compound 24, 4-((S)-1-(5-azaspiro[2.4]heptan-5-yl)ethyl)-6-cyclopropyl-N-(3-(3-((S)-fluoro(4-methyl-4H-1,2,4-triazol-3-yl)methyl)oxetan-3-yl)phenyl)picolinamide] |
| (1.0x) | 20 | 20 | C[C@H](c1cc(C(=O)Nc2cccc(C3([C@H](F)c4nncn4C)COC3)c2)nc(C2CC2)c1)N1CCC2(CC2)C1 [Compound 25, 4-((R)-1-(5-azaspiro[2.4]heptan-5-yl)ethyl)-6-cyclopropyl-N-(3-(3-((S)-fluoro(4-methyl-4H-1,2,4-triazol-3-yl)methyl)oxetan-3-yl)phenyl)picolinamide] |
| (1.5x) | 1500 | 2200 | C[C@H](Cc1nncn1C)c1cccc(NC(=O)c2nc(C(F)(F)F)c(CN3CCC4(CC4)C3)[nH]2)c1 [Compound 26, (R)-5-(5-azaspiro[2.4]heptan-5-ylmethyl)-N-(3-(1-(4-methyl-4H-1,2,4-triazol-3-yl)propan-2-yl)phenyl)-4-(trifluoromethyl)-1H-imidazole-2-carboxamide] |
